# Laboratory results reported in patent publication EP4201929A1, “QUINOXALINE THIOREDOXIN REDUCTASE INHIBITORS” (geneXplain GmbH, priority 2021, dated 2023).
# Key:
# GR = GR (Homo sapiens, UniProt P00390); assay: GR activity in cells; type: cell-based
# Excerpt: Having established that 1d*HCl inhibits TrxR1activity in vitro, it was important to confirm that 1d*HCl targets TrxRl in living cells. Therefore, we tested whether 1d*HCl is able to inhibit the enzymatic activity of TrxRl in MCF7 breast cancer cells. […] In contrast, GR activity was not inhibited by 1d*HCl in cells, which is in line with the in vitro results. Thus, we conclude that 1d*HCl selectively targets TrxRl in cancer cells and inhibits its activity, leading to the induction of ROS and oxidative stress.
# p53 = p53 induction by Western blot; type: cell-based; conditions: sign of DNA damage
# Experimental: The extraction of total cell lysates and western blot were performed according to standard procedure. The antibodies used for immunoblotting were: p53 (sc-126, Santa Cruz Biotechnology), γH2AX (#07-164, Millipore), TrxRl 19A1 (AbFrontier). Anti-β-actin monoclonal antibody (Millipore) was used as loading control. The horseradish peroxidase-coupled secondary antibodies (Jackson ImmunoResearch) and SuperSignal™ West Dura Extended Duration Substrate detection system (Thermo Fischer Scientific), and images were visualized using ChemiDoc Imaging System (Bio-Rad).
# The majority of chemotherapeutic drugs used currently in the clinic, are DNA damaging drugs. Induction of DNA damage is a very efficient way of elimination of cancer cells. Unfortunately, these drugs induce DNA damage also in normal cells, leading to severe side effects. We addressed the question whether 1d*HCl induces DNA damage. We tested this by detection of a hallmark of DNA damage, induction of phosphorylated histone H2AX, so called γH2AX. We used anti-yH2AX antibody to detect it in cells treated with 1d*HCl.
# B16 melanoma = B16 melanoma mouse model; type: in vivo, C57BL/6 mice; conditions: 10mg/kg i.p. every other day for 9 days, day 8 and day 9, compared to vehicle-treated mice
# Experimental: Animal experiments were approved by the regional ethics committee for animal research (N391/11 and N26/11), appointed and under the control of the Swedish Board of Agriculture and the Swedish Court. The animal experiments were in accordance with national regulations (SFS 1988:534, SFS 1988:539 and SFS 1988:541).
# For the B16 melanoma mouse model, 6-weeks-old female C57BL/6 mice were injected subcutaneously with 1x10^6 B16 cells. When the tumors reached 80-120 mm^3, 10 mg/kg of 1d*HCl were administered intraperitoneally every other day for 9 days (days 1, 3, 5, 7, 9). Tumor volume was measured by caliper three times per week, and the volume was calculated based on the formula (in ml): L/10*W/10*W/10*0.44 (L=length, W=width of tumor). Mice were sacrificed when tumors reached 2 cm^3 or upon bleeding.
# We tested the anti-tumor activity of 1d*HCl using allogenic model of B16 mice. We inoculated mice with B16 melanoma cells. When the tumors reached 100 mm^3, we treated them with i.p. injection of 1d*HCl, 10mg/kg every other day for 9 days. […] The differences in tumor volume between untreated control mice and animals treated with 1d*HCl are all statistically significant. Thus, 1d*HCl has in vivo anti-tumor activity in this animal tumor model.
# [1] = tested on: HCT116 p53-/- and A375p53-/- cells; assay: Growth suppression in wild type p53 versus p53-negative isogenic cells; type: cell-based; conditions: HCT116 vs HCT116 p53-/-; A375 vs A375p53-/-
# Experimental: Cells were grown in 96-well plates at a density of 3000 cells per well with or without doxycycline and treated with compounds. After 48 hours of incubation the proliferative cell reagent resazurin (Thermo Fisher Scientific) was added to the cells. The degree of resazurin reduction, which reflects cell viability, was measured by microplate reader by monitoring the absorbance at 570 nm and 600 nm, according to the manufacturer.
# Since p53 is a major inducer of apoptosis, including ROS-induced apoptosis, we tested whether p53 plays a role in growth suppression by 1d*HCl. We used wild type p53 HCT116 cells and their isogenic p53-negative cell line HCT116 p53-/-, as well as a pair of wild type p53 A375 and p53-negative A375p53-/- melanoma cells, generated using CRISPR-Cas9, as described previously [Zhou X, Singh M, Sanz Santos G, Guerlavais V, Carvajal LA, Aivado M, Zhan Y, Oliveira MMS, Westerberg LS, Annis DA, Johnsen JI, Selivanova G. Pharmacologic activation of p53 triggers viral mimicry response thereby abolishing tumor immune evasion and promoting anti-tumor immunity Cancer Discov. ([…]), 11(12), 3090-3105]. […] This allowed us to conclude that the tumor suppression is p53 -independent. […]
# [2] = tested on: reactive oxygen species (ROS); assay: Oxidative stress measurement (DCFH-DA-based assay); type: cell-based
# Experimental: Cells were treated with compounds and incubated 30 min with 10 µM DCF-DA in serum free medium. Afterward, cells were trypsinized, washed with PBS and fluorescence was analyzed by a FACSCalibur flow cytometer (BD Biosciences) using FL1-H channel.
# To get insight into the mechanism of the anti-tumor activity of 1d*HCl, we tested the level of oxidative stress upon treatment. We measured the induction of reactive oxygen species (ROS), using 2'-7'-Dichlorodihydrofluorescein diacetate (DCFH-DA)-based assay. […] After 8h of treatment, the induction of reactive oxygen species (ROS) was much higher.
# Chain of GR (P00390 44-522): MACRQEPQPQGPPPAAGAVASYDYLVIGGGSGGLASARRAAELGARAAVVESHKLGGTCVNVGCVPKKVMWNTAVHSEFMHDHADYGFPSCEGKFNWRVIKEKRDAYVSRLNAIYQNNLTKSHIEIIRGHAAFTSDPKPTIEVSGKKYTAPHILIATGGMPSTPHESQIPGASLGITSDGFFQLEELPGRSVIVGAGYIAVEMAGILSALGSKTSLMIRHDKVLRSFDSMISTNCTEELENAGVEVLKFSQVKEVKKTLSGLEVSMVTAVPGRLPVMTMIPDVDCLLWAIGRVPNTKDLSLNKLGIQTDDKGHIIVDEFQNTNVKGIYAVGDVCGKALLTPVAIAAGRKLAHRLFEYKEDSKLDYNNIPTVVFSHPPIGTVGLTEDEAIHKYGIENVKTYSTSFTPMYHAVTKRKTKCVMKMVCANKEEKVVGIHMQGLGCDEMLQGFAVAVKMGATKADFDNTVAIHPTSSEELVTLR
smiles,measurement,setting,value
"Cl.N#Cc1c(-c2cccnc2)[n+]([O-])c2cc(F)c(N3CCOCC3)cc2[n+]1[O-] [1d*HCl, 6-Fluoro-7-(morpholin-4-yl)-3-(pyridin-3-yl)quinoxaline-2-carbonitrile-1,4-dioxide hydrochloride]",GR activity in cells,GR,not inhibited
same,induction of p53,p53,did not detect a significant induction of p53
same,tumor volume,B16 melanoma,lower volume of tumors
same,growth suppression in the absence of p53,[1],not affected in the absence of p53
same,DCF fluorescence (induction of reactive oxygen species),[2]; 2h after treatment,significant increase in DCF fluorescence
same,induction of reactive oxygen species (ROS),[2]; after 8h of treatment,much higher
